Laboratory results published in patent US20050282814A1, “Vasculostatic agents and methods of use thereof” (TargeGen, Inc., priority 2002, published 2005).
Structures can show the parent of a compound that is named as a salt.

Tests used:
[1] = tested on: Lewis lung carcinoma cells; experiment: Lewis lung carcinoma lung metastases model, alone or with doxorubicin; type: in vivo, Balb/C mice; conditions: I.P. every 3 days for 3 cycles
Experimental: (§1) Syngeneic Lewis lung carcinoma cells were injected I.V. in order to establish lung metastases in Balb/C mice. Beginning 10 days after cells were injected, doxorubicin (3 mg/kg) and/or 6,7-bis(4-hydroxyphenyl)-pteridin-4-ylamine, sulfate salt (various doses as shown) was given I.P. every 3 days for 3 cycles. Animals were sacrificed at day 20, lungs were collected, and weighed. Net tumor burden is the weight of tumor-bearing lungs minus the average weight of normal control lungs. N=5/group, p<0.02.
as §1, with “The following experiments show the use of vasculostatic agents of the invention alone and in combination with chemotherapeutic agents for treatment of cancer. […] In the experiment shown in FIG. 2, syngeneic” for “Syngeneic”, “mgikg)” for “mg/kg)”, “salt, (compound A—various” for “salt (various”

[2] = tested on: edema formation induced using histamine as an agonist; experiment: Miles assay with histamine as agonist; type: in vivo, Sprague-Dawley rats; conditions: 1.5 mg/kg; histamine 10 μg/injection site; vehicle 12
Experimental: Sprague-Dawley rats were first injected IV with vehicle alone or test agent, followed by IV injection of Evans blue dye, followed by intradermal injections of saline and VEGF (200 ng/injection site) along both shaved flanks. After 45 min, intradermal injection sites were photographed and then scored by a blinded observer for extravasation of Evans blue dye into the dermis (dermal bluing) according to a 4 point scoring system (3=maximal bluing, ≧75% of response in vehicle-treated animals; 2=medium bluing, >25% but <75% of vehicle-treated animals; 1=minimal bluing, ≦25% of vehicle-treated animals; 0=bluing equivalent to saline injection sites on same animal). Individual scores for 4 injection sites (from 2 separate animals) were summed and are shown as a scale of 0-12, with a lower score indicating the greater anti-edema activity; note that all vehicle-treated groups score a value of 12, based on the scoring system outlined above.
The ability of test agents to influence edema induced by agonists other than VEGF was also tested. Compounds cited in this application inhibited edema formation induced using histamine as an agonist, for example, as shown below.
The ability of test agent to influence vascular edema was tested as above, except that the ability to block edema was tested using either VEGF or histamine as the agonist (200 ng and 10 μg/injection site, respectively).

[3] = tested on: acute myocardial infarct; experiment: Rat acute myocardial infarct model (60 min LAD occlusion, reperfusion); type: in vivo, Sprague-Dawley rats; conditions: 1.5 mg/kg IV at 90 min post-reperfusion, 24 hr
Experimental: A rodent model of acute myocardial infarct, in which the proximal left anterior descending coronary artery (LAD) is occluded for 60 min followed by reperfusion, was used to determine whether test agents reduced infarct size at 24 hours.
Myocardial infarcts were created in Sprague-Dawley rats (200-300 g body weight) by a 60 min occlusion of the LAD followed by LAD reperfusion. At 90 min post-reperfusion, either vehicle alone or test agents were injected IV. At 24 hr post-treatment, the ischemic zone (area at-risk, AAR) was delineated by re-ligation of the LAD followed by IV injection of alkali blue dye, after which hearts were sectioned along the short axis and stained using triphenyltetrazolium chloride to delineate viable from infarcted myocardium. Photographic images were then analyzed using morphometric software to calculate infarct area as a percent of the at-risk area.
The following studies were performed as described above, except that the timing of 3-[2,4-diamino-6-(3-hydroxyphenyl)pteridin-7-yl] phenol dihydrochloride salt administration (at 0.1 mg/kg) was varied. In one group, 3-[2,4-diamino-6-(3-hydroxyphenyl)pteridin-7-yl] phenol dihydrochloride salt was administered at both 60 and 240 min post-occlusion.
In a porcine MI model (90 min of LAD occlusion followed by complete reperfusion), a single 0.3 mg/kg IV bolus delivered 30 min post-reperfusion reduced infarct size by […] vs. controls (40% vs. 56%, N=12-13, P=0.03).

[4] = tested on: cerebral stroke; experiment: Cerebral stroke model, permanent middle cerebral artery occlusion; type: in vivo, mice; conditions: 1 mg/kg BW IV 60 min after ligation, 24 hours
Experimental: A rodent model of cerebral stroke, in which the middle cerebral artery is permanently occluded, was used to determine whether test agents reduced infarct size at 24 hours.
Cerebral strokes were created in mice by permanent ligation of the middle cerebral artery using a cauterizing tool, followed 60 min later by IV injection of either vehicle alone (50% PEG400 in water) or test agents (at 1 mg/kg BW). Twenty four hours later, brains were sectioned and stained using triphenyltetrazolium chloride to delineate viable from infarcted tissue. Photographic images were then analyzed using morphometric software to calculate infarct area.

[5] = tested on: angiogenesis; experiment: Matrigel plug angiogenesis model (bFGF or VEGF), FITC-lectin; type: in vivo, Athymic WeHi (nu/nu) mice; conditions: 10 mg/kg i.p. bid for four days; matrigel with bFGF or VEGF
Experimental: FIGS. 13 and 14 illustrate the effects of invention compounds for their capacity to inhibit angiogenesis in vivo. […] Tumor extracellular matrix infused with the 160 ng of the described growth factors were injected subcutaneously in a Balb/C mouse. The described invention compound was injected daily at the described concentration for 5 days. After 5 days the animals were sacrificed and angiogenesis quantified based on the binding of fluorescently labeled, endothelium specific FITC-lectin. In the graph, compound A is 6,7-bis(4-hydroxyphenyl)-pteridin-4-ylamine sulfate salt.
Referring to FIGS. 13 and 14, a murine model of angiogenesis was used to screen compounds for their capacity to inhibit angiogenesis. […] In the graph, compound A is 6,7-bis(4-hydroxyphenyl)-pteridin-4-ylamine sulfate salt. Athymic WeHi (nu/nu) mice were first injected with 400 lls of an ice-cold tumor-derived extracellular matrix substrate, matrigel (Becton-Dickinson) infused with 400 ng/ml of bFGF or VEGF (R&D Systems) which rapidly solidifies into a subdermal plug at body temperature. Mice were subsequently injected intaperitoneally with 10 mg/kg of the indicated compounds bid for four days. […] Twenty minutes after injection of the lectin, mice were euthanized, matrigel plugs were then extracted, solublized in PBS with mechanical grinding and the fluorescent content of individual plugs was quantified. […]

Nc1ncnc2nc(-c3ccc(O)cc3)c(-c3ccc(O)cc3)nc12 [compound A, 6,7-bis(4-hydroxyphenyl)-pteridin-4-ylamine sulfate salt]
reduction of tumor burden as a stand alone agent ([1]; lungs weighed at day 20): 25% | reduction of tumor burden in combination with doxorubicin ([1]; doxorubicin 3 mg/kg, day 20): greater than 90% | Score with histamine as agonist (scale of 0-12) [2]: 3 | Infarct (% AAR, mean ± SEM) [3]: 60.6 ± 1.8 % AAR | % Infarct reduction ([3]; vs vehicle): 20% | Infarct area in mm^3 (mean ± SEM) [4]: 18.3 ± 2.6 mm^3 | % Infarct reduction ([4]; vs vehicle): 53% | inhibition of angiogenesis in vivo [5]: successfully inhibited angiogenesis in vivo
